Measured values as given in ChEMBL document CHEMBL4507311, “Data for DCP probe A-1155463” (2021).

Tests used:
[1] = target: Histamine H3 receptor (Homo sapiens, UniProt Q9Y5N1); assay: GPCRScan assay: inhibition of H3; design: radioligand conc. used [nm] 0.5 – 1.0, parental cells HEK Flp-In
[2] = target: AP2-associated protein kinase 1 (Homo sapiens) (UniProt Q2M2I8); conditions: Compound concentration 1000.0 nM
[3] = tested on: Tyrosine-protein kinase ABL1 (Homo sapiens), P00519 [F317I]; conditions: Compound concentration 1000.0 nM
[4] = target: Ankyrin repeat and protein kinase domain-containing protein 1 (Homo sapiens) (UniProt Q8NFD2); conditions: Compound concentration 1000.0 nM
[5] = target: Mitogen-activated protein kinase kinase kinase 6 (Homo sapiens) (UniProt O95382); conditions: Compound concentration 1000.0 nM
Mitogen-activated protein kinase kinase kinase 6 (Homo sapiens), sequence (O95382 whole entry): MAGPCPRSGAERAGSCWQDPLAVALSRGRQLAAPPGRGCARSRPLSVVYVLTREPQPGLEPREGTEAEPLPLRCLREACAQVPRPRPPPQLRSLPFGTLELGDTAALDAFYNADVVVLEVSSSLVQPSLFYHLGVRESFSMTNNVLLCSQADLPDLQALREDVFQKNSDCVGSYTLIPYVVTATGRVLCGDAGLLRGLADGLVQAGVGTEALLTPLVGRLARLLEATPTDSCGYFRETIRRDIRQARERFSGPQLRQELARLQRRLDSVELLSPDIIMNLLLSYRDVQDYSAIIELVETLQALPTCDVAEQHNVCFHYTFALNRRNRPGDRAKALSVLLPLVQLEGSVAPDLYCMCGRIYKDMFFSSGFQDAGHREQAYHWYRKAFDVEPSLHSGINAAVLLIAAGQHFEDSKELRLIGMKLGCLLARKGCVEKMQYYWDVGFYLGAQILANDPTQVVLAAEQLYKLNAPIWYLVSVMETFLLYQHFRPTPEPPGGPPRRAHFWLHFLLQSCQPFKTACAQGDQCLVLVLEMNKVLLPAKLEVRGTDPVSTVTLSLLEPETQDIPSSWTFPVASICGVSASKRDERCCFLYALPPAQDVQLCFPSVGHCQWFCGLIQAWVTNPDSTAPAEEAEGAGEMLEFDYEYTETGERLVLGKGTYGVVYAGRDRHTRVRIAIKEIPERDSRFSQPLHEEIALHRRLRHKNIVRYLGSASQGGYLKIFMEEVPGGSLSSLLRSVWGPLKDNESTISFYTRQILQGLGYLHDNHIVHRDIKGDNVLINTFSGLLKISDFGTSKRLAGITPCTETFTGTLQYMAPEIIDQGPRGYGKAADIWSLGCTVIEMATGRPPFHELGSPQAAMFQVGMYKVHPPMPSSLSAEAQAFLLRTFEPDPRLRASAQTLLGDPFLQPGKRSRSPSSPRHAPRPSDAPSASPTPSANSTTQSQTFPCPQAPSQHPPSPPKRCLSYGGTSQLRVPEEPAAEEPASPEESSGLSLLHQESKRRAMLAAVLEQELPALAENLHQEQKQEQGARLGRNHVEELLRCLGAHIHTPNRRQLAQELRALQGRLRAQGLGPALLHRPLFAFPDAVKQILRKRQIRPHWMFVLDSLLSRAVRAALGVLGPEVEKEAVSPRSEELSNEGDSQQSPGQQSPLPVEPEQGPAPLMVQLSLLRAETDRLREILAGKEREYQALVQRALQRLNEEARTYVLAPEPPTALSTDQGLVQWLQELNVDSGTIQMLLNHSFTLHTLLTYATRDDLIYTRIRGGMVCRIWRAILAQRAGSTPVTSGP

[6] = target: Dual specificity protein kinase CLK2 (Homo sapiens) (UniProt P49760); conditions: Compound concentration 1000.0 nM
[7] = target: Macrophage colony-stimulating factor 1 receptor (Homo sapiens) (UniProt P07333); conditions: Compound concentration 1000.0 nM
Macrophage colony-stimulating factor 1 receptor (Homo sapiens), sequence (P07333 whole entry): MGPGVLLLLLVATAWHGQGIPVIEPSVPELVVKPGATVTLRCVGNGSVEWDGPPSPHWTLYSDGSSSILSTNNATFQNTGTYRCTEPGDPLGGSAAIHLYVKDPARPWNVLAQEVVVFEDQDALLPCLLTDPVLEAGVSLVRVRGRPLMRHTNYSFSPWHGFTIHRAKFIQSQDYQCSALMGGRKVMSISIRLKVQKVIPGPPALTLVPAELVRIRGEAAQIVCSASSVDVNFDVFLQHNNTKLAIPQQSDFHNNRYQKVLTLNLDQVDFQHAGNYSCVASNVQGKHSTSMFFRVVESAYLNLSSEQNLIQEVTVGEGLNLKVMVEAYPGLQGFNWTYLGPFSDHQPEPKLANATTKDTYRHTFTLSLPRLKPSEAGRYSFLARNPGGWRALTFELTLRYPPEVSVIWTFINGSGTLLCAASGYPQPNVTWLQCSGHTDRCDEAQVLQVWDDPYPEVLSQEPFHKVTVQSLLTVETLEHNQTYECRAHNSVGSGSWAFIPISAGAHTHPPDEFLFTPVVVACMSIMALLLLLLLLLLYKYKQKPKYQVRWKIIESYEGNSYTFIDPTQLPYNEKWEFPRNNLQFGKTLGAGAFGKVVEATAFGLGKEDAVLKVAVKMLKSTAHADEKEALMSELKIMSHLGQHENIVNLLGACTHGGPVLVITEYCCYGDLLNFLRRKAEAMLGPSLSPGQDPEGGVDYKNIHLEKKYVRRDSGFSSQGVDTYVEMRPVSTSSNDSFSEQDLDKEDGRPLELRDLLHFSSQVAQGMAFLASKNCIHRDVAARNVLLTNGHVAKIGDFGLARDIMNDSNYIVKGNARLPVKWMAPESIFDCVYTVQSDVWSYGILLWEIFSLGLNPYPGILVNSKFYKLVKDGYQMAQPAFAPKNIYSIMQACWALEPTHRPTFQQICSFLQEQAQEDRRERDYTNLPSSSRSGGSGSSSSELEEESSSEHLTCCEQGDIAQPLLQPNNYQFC

[8] = target: Serine/threonine-protein kinase DCLK2 (Homo sapiens) (UniProt Q8N568); conditions: Compound concentration 1000.0 nM
[9] = target: Eukaryotic translation initiation factor 2-alpha kinase 1 (Homo sapiens) (UniProt Q9BQI3); conditions: Compound concentration 1000.0 nM
[10] = target: Ephrin type-B receptor 2 (Homo sapiens) (UniProt P29323); conditions: Compound concentration 1000.0 nM
[11] = target: Mitogen-activated protein kinase 1 (Homo sapiens) (UniProt P28482); conditions: Compound concentration 1000.0 nM
[12] = target: Mitogen-activated protein kinase 4 (Homo sapiens) (UniProt P31152); conditions: Compound concentration 1000.0 nM
[13] = tested on: Receptor-type tyrosine-protein kinase FLT3 (Homo sapiens), P36888 [N841I]; conditions: Compound concentration 1000.0 nM
[14] = target: Mitogen-activated protein kinase 9 (Homo sapiens) (UniProt P45984); conditions: Compound concentration 1000.0 nM
[15] = target: LIM domain kinase 1 (Homo sapiens) (UniProt P53667); conditions: Compound concentration 1000.0 nM
[16] = target: Dual specificity mitogen-activated protein kinase kinase 6 (Homo sapiens) (UniProt P52564); conditions: Compound concentration 1000.0 nM
[17] = target: Serine/threonine-protein kinase PAK 1 (Homo sapiens) (UniProt Q13153); conditions: Compound concentration 1000.0 nM
[18] = target: Phosphatidylinositol 5-phosphate 4-kinase type-2 beta (Homo sapiens) (UniProt P78356); conditions: Compound concentration 1000.0 nM
Phosphatidylinositol 5-phosphate 4-kinase type-2 beta (Homo sapiens), sequence (P78356 whole entry): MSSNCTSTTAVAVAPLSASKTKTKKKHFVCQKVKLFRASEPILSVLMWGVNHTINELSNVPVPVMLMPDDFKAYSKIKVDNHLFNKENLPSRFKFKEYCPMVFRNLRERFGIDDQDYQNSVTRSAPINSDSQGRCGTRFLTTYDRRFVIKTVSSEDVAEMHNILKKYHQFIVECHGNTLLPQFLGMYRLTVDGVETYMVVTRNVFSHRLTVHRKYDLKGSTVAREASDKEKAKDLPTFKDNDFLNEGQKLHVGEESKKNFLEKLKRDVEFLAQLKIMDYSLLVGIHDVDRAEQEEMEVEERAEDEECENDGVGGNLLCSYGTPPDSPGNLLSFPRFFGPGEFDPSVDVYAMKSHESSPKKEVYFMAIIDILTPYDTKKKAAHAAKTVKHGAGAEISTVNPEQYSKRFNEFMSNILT

[19] = target: Protein kinase C delta type (Homo sapiens) (UniProt Q05655); conditions: Compound concentration 1000.0 nM
Protein kinase C delta type (Homo sapiens), sequence (Q05655 whole entry, looked up): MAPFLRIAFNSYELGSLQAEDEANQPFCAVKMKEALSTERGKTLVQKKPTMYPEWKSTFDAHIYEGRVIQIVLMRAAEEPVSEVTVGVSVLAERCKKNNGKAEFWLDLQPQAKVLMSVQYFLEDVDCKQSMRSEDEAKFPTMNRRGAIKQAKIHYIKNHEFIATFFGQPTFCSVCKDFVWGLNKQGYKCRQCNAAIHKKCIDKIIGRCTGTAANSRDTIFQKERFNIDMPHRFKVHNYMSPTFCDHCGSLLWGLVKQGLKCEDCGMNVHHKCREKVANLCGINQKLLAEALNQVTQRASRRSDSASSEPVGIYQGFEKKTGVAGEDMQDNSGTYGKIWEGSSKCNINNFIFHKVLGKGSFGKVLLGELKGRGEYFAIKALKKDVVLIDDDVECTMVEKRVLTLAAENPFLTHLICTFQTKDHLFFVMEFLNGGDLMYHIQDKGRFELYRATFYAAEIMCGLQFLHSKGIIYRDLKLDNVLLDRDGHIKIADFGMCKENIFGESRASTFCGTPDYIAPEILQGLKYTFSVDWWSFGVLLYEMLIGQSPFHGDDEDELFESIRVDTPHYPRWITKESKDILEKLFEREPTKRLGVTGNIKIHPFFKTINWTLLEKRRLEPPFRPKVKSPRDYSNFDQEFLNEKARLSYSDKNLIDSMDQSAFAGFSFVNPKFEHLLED

[20] = target: Serine/threonine-protein kinase D1 (Homo sapiens) (UniProt Q15139); conditions: Compound concentration 1000.0 nM
[21] = target: cGMP-dependent protein kinase 2 (Homo sapiens) (UniProt Q13237); conditions: Compound concentration 1000.0 nM
[22] = target: Serine/threonine-protein kinase PRP4 homolog (Homo sapiens) (UniProt Q13523); conditions: Compound concentration 1000.0 nM
[23] = target: Serine/threonine-protein kinase TAO1 (Homo sapiens) (UniProt Q7L7X3); conditions: Compound concentration 1000.0 nM
Serine/threonine-protein kinase TAO1 (Homo sapiens), sequence (Q7L7X3 whole entry): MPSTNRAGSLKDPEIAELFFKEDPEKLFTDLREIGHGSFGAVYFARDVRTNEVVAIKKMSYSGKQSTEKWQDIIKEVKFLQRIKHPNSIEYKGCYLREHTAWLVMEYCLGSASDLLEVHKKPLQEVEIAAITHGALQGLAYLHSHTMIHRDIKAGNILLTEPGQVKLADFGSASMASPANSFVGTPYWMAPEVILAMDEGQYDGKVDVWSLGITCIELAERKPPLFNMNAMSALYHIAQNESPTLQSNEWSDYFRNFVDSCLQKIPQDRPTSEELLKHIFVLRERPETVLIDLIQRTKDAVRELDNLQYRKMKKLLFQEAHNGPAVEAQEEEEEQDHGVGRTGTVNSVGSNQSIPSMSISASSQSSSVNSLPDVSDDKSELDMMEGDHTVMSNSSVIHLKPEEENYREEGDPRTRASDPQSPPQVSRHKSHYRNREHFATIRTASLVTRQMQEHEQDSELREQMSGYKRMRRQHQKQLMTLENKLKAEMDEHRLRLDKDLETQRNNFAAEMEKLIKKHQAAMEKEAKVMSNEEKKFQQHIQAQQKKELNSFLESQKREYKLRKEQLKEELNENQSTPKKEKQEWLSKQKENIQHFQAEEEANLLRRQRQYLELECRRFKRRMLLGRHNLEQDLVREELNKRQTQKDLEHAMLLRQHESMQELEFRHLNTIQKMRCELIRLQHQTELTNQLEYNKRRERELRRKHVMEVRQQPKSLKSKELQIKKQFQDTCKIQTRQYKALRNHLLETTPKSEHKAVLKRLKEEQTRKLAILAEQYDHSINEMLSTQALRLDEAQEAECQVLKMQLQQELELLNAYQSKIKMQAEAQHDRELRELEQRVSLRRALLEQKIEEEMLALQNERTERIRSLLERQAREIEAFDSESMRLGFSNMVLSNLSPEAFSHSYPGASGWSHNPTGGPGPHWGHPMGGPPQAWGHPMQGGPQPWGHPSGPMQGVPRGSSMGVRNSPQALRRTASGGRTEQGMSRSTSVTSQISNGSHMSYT

[24] = target: TRAF2 and NCK-interacting protein kinase (Homo sapiens) (UniProt Q9UKE5); conditions: Compound concentration 1000.0 nM
[25] = target: Serine/threonine-protein kinase TNNI3K (Homo sapiens) (UniProt Q59H18); conditions: Compound concentration 1000.0 nM
[26] = target: Vascular endothelial growth factor receptor 2 (Homo sapiens) (UniProt P35968); conditions: Compound concentration 1000.0 nM
[27] = target: Serine/threonine-protein kinase WNK4 (Homo sapiens) (UniProt Q96J92); conditions: Compound concentration 1000.0 nM
[28] = target: T1, 5-hydroxytryptamine receptor 1A (Homo sapiens) (UniProt P08908); conditions: Compound concentration 10.0 uM
T1 sequence (whole entry): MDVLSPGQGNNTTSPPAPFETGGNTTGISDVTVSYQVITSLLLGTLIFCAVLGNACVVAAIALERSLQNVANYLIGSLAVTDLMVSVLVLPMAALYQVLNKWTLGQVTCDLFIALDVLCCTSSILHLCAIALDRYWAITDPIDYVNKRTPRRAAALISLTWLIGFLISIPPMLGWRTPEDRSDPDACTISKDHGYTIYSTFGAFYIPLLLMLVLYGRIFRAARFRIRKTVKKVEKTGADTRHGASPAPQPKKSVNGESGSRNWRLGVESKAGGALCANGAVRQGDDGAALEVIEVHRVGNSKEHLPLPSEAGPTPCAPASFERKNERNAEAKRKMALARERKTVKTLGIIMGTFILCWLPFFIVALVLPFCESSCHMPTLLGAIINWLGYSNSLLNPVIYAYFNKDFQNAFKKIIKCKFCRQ

[29] = target: 5-hydroxytryptamine receptor 2A (Homo sapiens) (UniProt P28223); conditions: Compound concentration 10.0 uM
[30] = target: Sodium-dependent serotonin transporter (Homo sapiens) (UniProt P31645); conditions: Compound concentration 10.0 uM
[31] = target: Mu-type opioid receptor (Homo sapiens) (UniProt P35372); conditions: Compound concentration 10.0 uM
[32] = target: T2, Alpha-2A adrenergic receptor (Homo sapiens) (UniProt P08913); conditions: Compound concentration 10.0 uM
T2 sequence (whole entry): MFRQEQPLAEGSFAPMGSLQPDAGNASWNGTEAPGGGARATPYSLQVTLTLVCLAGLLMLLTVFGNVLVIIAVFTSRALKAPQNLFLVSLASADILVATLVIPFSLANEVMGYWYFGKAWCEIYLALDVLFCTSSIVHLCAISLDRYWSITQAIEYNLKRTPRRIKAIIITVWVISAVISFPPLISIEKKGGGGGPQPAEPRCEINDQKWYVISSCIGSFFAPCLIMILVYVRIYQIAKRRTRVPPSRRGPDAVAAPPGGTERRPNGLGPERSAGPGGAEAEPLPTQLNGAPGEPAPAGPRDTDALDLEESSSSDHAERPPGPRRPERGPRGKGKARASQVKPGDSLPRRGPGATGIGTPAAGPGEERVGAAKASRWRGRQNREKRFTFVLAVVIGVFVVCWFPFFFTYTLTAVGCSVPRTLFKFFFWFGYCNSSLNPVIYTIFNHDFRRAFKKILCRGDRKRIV

[33] = species on record: Rattus norvegicus; conditions: Compound concentration 10.0 uM
[34] = target: Sigma non-opioid intracellular receptor 1 (Homo sapiens, UniProt Q99720); conditions: Compound concentration 10.0 uM
Sigma non-opioid intracellular receptor 1, sequence (Q99720 whole entry): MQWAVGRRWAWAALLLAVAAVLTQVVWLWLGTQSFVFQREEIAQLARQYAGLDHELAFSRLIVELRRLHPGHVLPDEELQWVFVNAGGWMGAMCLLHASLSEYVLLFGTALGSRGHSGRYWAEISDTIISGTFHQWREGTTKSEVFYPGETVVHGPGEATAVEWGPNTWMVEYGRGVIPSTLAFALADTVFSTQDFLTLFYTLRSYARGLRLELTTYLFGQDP

Histamine H3 receptor, sequence (Q9Y5N1 whole entry): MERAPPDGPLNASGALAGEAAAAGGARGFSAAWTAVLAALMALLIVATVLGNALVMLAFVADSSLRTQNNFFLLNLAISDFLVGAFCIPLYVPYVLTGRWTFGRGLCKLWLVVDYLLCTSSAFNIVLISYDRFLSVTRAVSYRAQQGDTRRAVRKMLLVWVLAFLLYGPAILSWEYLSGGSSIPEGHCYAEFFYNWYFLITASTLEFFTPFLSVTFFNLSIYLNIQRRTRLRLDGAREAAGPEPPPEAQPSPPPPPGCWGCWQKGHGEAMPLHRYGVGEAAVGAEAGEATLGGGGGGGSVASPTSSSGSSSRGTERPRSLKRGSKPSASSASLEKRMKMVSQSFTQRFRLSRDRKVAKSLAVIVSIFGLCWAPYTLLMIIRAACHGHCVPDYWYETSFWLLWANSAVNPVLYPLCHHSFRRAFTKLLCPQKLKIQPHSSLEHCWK

CN(C)CC#Cc1ccc(OCCCc2sc(N3CCc4cccc(C(=O)Nc5nc6ccccc6s5)c4C3)nc2C(=O)O)c(F)c1 [A-1155463]
Ki [1]: 1.81 µM | residual activity [2]: 91% | residual activity [3]: 100% | residual activity [4]: 69% | residual activity [5]: 82% | residual activity [6]: 83% | residual activity [7]: 87% | residual activity [8]: 100% | residual activity [9]: 98% | residual activity [10]: 100% | residual activity [11]: 100% | residual activity [12]: 89% | residual activity [13]: 81% | residual activity [14]: 76% | residual activity [15]: 97% | residual activity [16]: 100% | residual activity [17]: 98% | residual activity [18]: 80% | residual activity [19]: 100% | residual activity [20]: 100% | residual activity [21]: 86% | residual activity [22]: 100% | residual activity [23]: 100% | residual activity [24]: 83% | residual activity [25]: 100% | residual activity [26]: 100% | residual activity [27]: 81% | inhibition [28]: 5.18% | inhibition [29]: 40.1% | inhibition [30]: 16.4% | inhibition [31]: 15.4% | inhibition [32]: 7.32% | inhibition [33]: 61.1% | inhibition [34]: 53.3%
